From PMC4480820, “Modafinil and its metabolites enhance the anticonvulsant action of classical antiepileptic drugs in the mouse maximal electroshock-induced seizure model” (Psychopharmacology, 2015)

Legend:
[1] = tested on: passive avoidance performance in mice; test: Step-through passive avoidance task; type: in vivo, Swiss mice; settings: median (25th; 75th percentiles), observed up to 180 s
Procedure: The effects of combinations of modafinil (50 mg kg^−1), its metabolites (50 mg kg^−1), or GBR 12909 (25 mg kg^−1) with different classical AEDs were quantified by the step-through passive avoidance task of Venault et al. ([1986]). AEDs were administered at doses corresponding to their ED50 values from the MES test. Each animal received an AED either alone or in combination either with modafinil, sulfone, and acid metabolites or with GBR 12909 on the first day before training. The time before commencement of the training session (after drug administration) in the step-through passive avoidance task was identical to that for the MES test. Subsequently, the animals were placed in an illuminated box (10 × 13 × 15 cm) connected to a larger dark box (25 × 20 × 15 cm) equipped with an electric grid floor. Entrance of the animals to the dark box was punished by an adequate electric footshock (0.6 mA for 2 s). […] On the following day (24 h later), the pretrained animals were placed again into the illuminated box and observed for up to 180 s. Mice that avoided the dark compartment for 180 s were considered as having remembered the task. The time the mice took to enter the dark box was noted, and the median latencies (retention times) with 25th and 75th percentiles were calculated.

[2] = tested on: motor coordination in mice; test: Chimney test; type: in vivo, Swiss mice; settings: n = 8 mice/group
Source text: The chimney test of Boissier et al. ([1960]) was used to quantify the adverse effect potential of classical AEDs administered in combination with modafinil, its metabolites, or GBR 12909. In this test, the animals had to climb backwards up a plastic tube (3-cm inner diameter, 30 cm long), and impairment of motor performance was indicated by the inability of the mice to climb backward up the transparent tube within 60 s.

[3] = tested on: skeletal muscular strength in mice; test: Grip strength test; type: in vivo, Swiss mice; settings: mean ± S.E.M.
Procedure: The effects of combinations of modafinil (50 mg kg^−1), sulfone and acid metabolites (50 mg kg^−1), or GBR 12909 (25 mg kg^−1) with different classical AEDs at doses corresponding to their ED50 values from the MES test on skeletal muscular strength in mice were quantified by the grip strength test of Meyer et al. ([1979]). The grip strength apparatus (BioSeb, Chaville, France) comprised a wire grid (8 × 8 cm) connected to an isometric force transducer (dynamometer). The mice were lifted by the tails so that their forepaws could grasp the grid. The mice were then gently pulled backward by the tail until the grid was released. The maximal force exerted by the mouse before losing grip was recorded. The mean of three measurements for each animal was calculated, and subsequently, the mean maximal force of eight animals per group was determined. The muscular strength in mice is expressed in N (newtons) as the means ± S.E.M. of at least eight determinations.

[4] = tested on: threshold for electroconvulsions in mice; test: Maximal electroshock seizure threshold (MEST) test; settings: for TID20 (dose that increases threshold by 20 %): i.p., 30 min before test, from linear regression of dose vs threshold increase
[5] = tested on: MES-induced seizures in mice; design: method as in Chatterjie et al. [2004]; settings: 300 mg kg^−1 i.p., ref Chatterjie et al. [2004], cited from earlier work
[6] = tested on: MES-induced seizures in mice; test: Maximal electroshock seizure (MES) test, AEDs alone and in combination; type: in vivo, Swiss mice; settings: AED + vehicle (alone), i.p., 25 mA, ± S.E.M.
Procedure: The stimulus duration was 0.2 s.
These parameters of stimulation (maximal electroshock) typically result in all mice responding with tonic hind limb extension immediately after stimulation. The AEDs administered alone and their combination with modafinil, its metabolites, or GBR 12909 were tested for their ability to increase the number of animals not responding with tonus (i.e., protected from tonic hind limb extension) after stimulation. […] After constructing a dose-effect curve (i.e., dose in mg kg^−1 vs percentage of mice protected), the protective median effective dose (ED50) value of the AED tested was calculated according to a log-probit method by Litchfield and Wilcoxon ([1949]). […] Modafinil, its two metabolites, and GBR 12909 were tested for their ability to affect the anticonvulsive potency of AEDs.

[7] = Total brain antiepileptic drug concentrations (fluorescence polarization immunoassay); settings: AED + vehicle, mean ± S.E.M., n = 8
Procedure: The whole brains of mice were removed from the skulls, weighed, harvested, and homogenized using Abbott buffer (1:2 weight/volume; Abbott Laboratories, North Chicago, IL, USA) in an Ultra-Turrax T8 homogenizer. The homogenates were then centrifuged at 10,000 g for 10 min, and the supernatant samples of 100 μl were collected and then analyzed for AED content. Total brain concentrations of CBZ, PB, PHT, and VPA were measured by a fluorescence polarization immunoassay using an analyzer (Abbott TDx) and manufacturer-supplied reagent kits (Abbott Laboratories, North Chicago, IL, USA). Total brain AED concentrations are expressed in μg g^−1 of wet brain tissue as means ± standard error of the mean (S.E.M.) of at least eight separate brain preparations.

[8] = tested on: locomotor activation in mice; design: method as in Paterson et al. [2010]; settings: ref Paterson et al. [2010]; cited from earlier work
[9] = compound alone 50 mg kg^−1 i.p. + vehicle
[10] = control of GBR series (Table 5)
[11] = control of MOD, SULF and ACID series (Tables 2-4)
[12] = i.p.: CBZ 4.3, PB 13.0, PHT 5.4, VPA 245.3 mg kg^−1 (control of MOD)
[13] = i.p.: CBZ 5.7, PB 14.0, PHT 6.0, VPA 226.4 mg kg^−1 (control of SULF)
[14] = i.p.: CBZ 6.4, PB 14.4, PHT 6.3, VPA 241.6 mg kg^−1 (control of ACID)
[15] = i.p.: CBZ 11.2, PB 15.4, PHT 7.0, VPA 211.4 mg kg^−1 (control of GBR)
[16] = GBR alone 25 mg kg^−1 i.p. + vehicle

SMILES | TI (percentage of threshold increase over vehicle control) ([4]; 12.5 mg kg^−1 i.p.) [%] | TI (percentage of threshold increase over vehicle control) ([4]; 25 mg kg^−1 i.p.) [%] | TI (percentage of threshold increase over vehicle control) ([4]; 50 mg kg^−1 i.p.) [%] | TID20 (dose that increases threshold by 20 %) [4] [mg/kg] | ED50 of the AED (protecting 50 % of animals against MES-induced hind limb extension) [6, 10] [mg/kg] | ED50 of the AED (protecting 50 % of animals against MES-induced hind limb extension) [6, 11] [mg/kg] | Brain concentration of the AED [7, 12] | Brain concentration of the AED [7, 13] | Brain concentration of the AED [7, 14] | Brain concentration of the AED [7, 15] | further results
O=C(O)CSC(c1ccccc1)c1ccccc1 [ACID, diphenylmethylthioacetic acid] | 12.83 | 22.32 | 34.80 | 23.47 | – | – | – | – | – | – | Retention time [1, 9]: 180 (133.5; 180) s; Motor coordination impairment (number of animals showing impairment in the chimney test) [2, 9]: 0/8; Grip strength [3, 9]: 0.961 ± 0.050 N; TI (percentage of threshold increase over vehicle control) ([4]; 75 mg kg^−1 i.p.): 57.82%; Toxicity at the dose tested in the MES test [5]: toxic
NC(=O)N1c2ccccc2C=Cc2ccccc21 [CBZ, carbamazepine] | – | – | – | – | 15.53 ± 1.04 | 11.23 ± 1.20 | 2.41 ± 0.48 μg g^−1 of wet brain tissue | 3.76 ± 0.35 μg g^−1 of wet brain tissue | 4.46 ± 0.31 μg g^−1 of wet brain tissue | 6.66 ± 0.42 μg g^−1 of wet brain tissue | –
Fc1ccc(C(OCCN2CCN(CCCc3ccccc3)CC2)c2ccc(F)cc2)cc1 [GBR] | 19.18 | 25.67 | 44.53 | 16.37 | – | – | – | – | – | – | Retention time [1, 16]: 180 (133.5; 180) s; Motor coordination impairment (number of animals showing impairment in the chimney test) [2, 16]: 1/8; Dose eliciting equivalent locomotor activation [8]: 15 mg/kg; Grip strength [3, 16]: 0.937 ± 0.042 N; TI (percentage of threshold increase over vehicle control) ([4]; 6.25 mg kg^−1 i.p.): 11.25%
CCC1(c2ccccc2)C(=O)NC(=O)NC1=O [PB, phenobarbital] | – | – | – | – | 26.90 ± 2.15 | 20.80 ± 3.12 | 23.56 ± 1.10 μg g^−1 of wet brain tissue | 23.71 ± 0.86 μg g^−1 of wet brain tissue | 25.46 ± 0.84 μg g^−1 of wet brain tissue | 24.18 ± 0.70 μg g^−1 of wet brain tissue | –
O=C1NC(=O)C(c2ccccc2)(c2ccccc2)N1 [PHT, phenytoin] | – | – | – | – | 12.10 ± 1.20 | 11.00 ± 0.93 | 1.39 ± 0.20 μg g^−1 of wet brain tissue | 1.65 ± 0.19 μg g^−1 of wet brain tissue | 1.70 ± 0.15 μg g^−1 of wet brain tissue | 3.22 ± 0.30 μg g^−1 of wet brain tissue | –
NC(=O)CS(=O)(=O)C(c1ccccc1)c1ccccc1 [SULF, diphenylmethylsufonylacetamide] | 14.24 | 21.62 | 32.34 | 23.57 | – | – | – | – | – | – | Retention time [1, 9]: 180 (180; 180) s; Motor coordination impairment (number of animals showing impairment in the chimney test) [2, 9]: 0/8; Grip strength [3, 9]: 0.957 ± 0.058 N; TI (percentage of threshold increase over vehicle control) ([4]; 75 mg kg^−1 i.p.): 58.88%; Protection against MES-induced seizures ([5]; administered alone): 50%
CCCC(CCC)C(=O)O [VPA, valproate] | – | – | – | – | 286.7 ± 20.11 | 328.6 ± 13.17 | 299.73 ± 15.09 μg g^−1 of wet brain tissue | 276.30 ± 11.55 μg g^−1 of wet brain tissue | 346.98 ± 16.10 μg g^−1 of wet brain tissue | 173.66 ± 10.36 μg g^−1 of wet brain tissue | –
